Where two headings read alike, the source gives them in different places.
Biological target: T1, PD-1/PD-L1 (Homo sapiens, UniProt Q9NZQ7)
T1 construct: made in house; host or cells: HEK293T
Assay: PD-1/PD-L1 Homogenous Time-Resolved Fluorescence (HTRF) binding assay
Conditions: PD-L1-His 10 nM, PD-1-Ig 20 nM, read-out: Range or IC50
How it was run: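 Compounds are tested for blocking the PD-1/PD-L1 interaction in dPBS supplemented with 0.1% BSA and 0.05% (v/v) Tween-20. Tagged proteins are detected with Eu-cryptate anti-Ig and APC anti-His at 1 and 20 nM final.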

T1 sequence (Q9NZQ7 with tags, fused parts or gaps): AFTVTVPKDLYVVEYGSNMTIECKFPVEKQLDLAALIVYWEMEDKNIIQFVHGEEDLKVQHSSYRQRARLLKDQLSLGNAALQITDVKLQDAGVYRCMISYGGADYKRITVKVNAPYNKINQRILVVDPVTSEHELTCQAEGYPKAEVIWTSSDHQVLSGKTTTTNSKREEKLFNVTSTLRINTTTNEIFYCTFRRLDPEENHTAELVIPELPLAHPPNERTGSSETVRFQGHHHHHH

Structure (SMILES)	IC50 (value given as range class) [nM]	IC50 (numeric IC50) [nM]
Cc1c(CCCCN2CC[C@@H](O)C2)cccc1-c1cccc(COc2cc(OCc3cncc(C#N)c3)c(CN3C[C@H](O)C[C@H]3C(=O)O)cc2Cl)c1C [Example 4062, (2S,4R)-1-(5-chloro-2-((5-cyanopyridin-3-yl)methoxy)-4-((3′-(4-((R)-3-hydroxypyrrolidin-1-yl)butyl)-2,2′-dimethyl-[1,1′-biphenyl]-3-yl)methoxy)benzyl)-4-hydroxypyrrolidine-2-carboxylic Acid]	0.21 to 10	–
Cc1c(COc2cc(OCc3cncc(C#N)c3)c(CN3CCCC[C@H]3C(=O)O)cc2Cl)cccc1-c1cccc(OCCCNCCc2ncn(C)c2Cl)c1C [Example 2231, (2S)-1-(5-chloro-4-((3′-(3-(2-(5-chloro-1-methyl-1H-imidazol-4-yl)ethylamino)propoxy)-2,2′-dimethylbiphenyl-3-yl)methoxy)-2-((5-cyanopyridin-3-yl)methoxy)benzyl)piperidine-2-carboxylic Acid]	–	12
Cc1c(COc2cc(OCc3cncc(C#N)c3)c(CN3CCCC[C@H]3C(=O)O)cc2Cl)cccc1-c1cccc(OCCCN2CCOCC2CO)c1C (stereo partly drawn) [Example 3050, (2S)-1-(5-chloro-2-((5-cyanopyridin-3-yl)methoxy)-4-((3′-(3-(3-(hydroxymethyl)morpholino)propoxy)-2,2′-dimethyl-[1,1′-biphenyl]-3-yl)methoxy)benzyl)piperidine-2-carboxylic Acid]	0.21 to 10	–
Cc1c(COc2cc(OCc3cncc(C#N)c3)c(CN3CCCC[C@H]3C(=O)O)cc2Cl)cccc1-c1cccc(OCCCN2CCC(C(=O)O)CC2)c1C [Example 2364, (S)-1-(4-((3′-(3-(4-carboxypiperidin-1-yl)propoxy)-2,2′-dimethyl-[1,1′-biphenyl]-3-yl)methoxy)-5-chloro-2-((5-cyanopyridin-3-yl)methoxy)benzyl)piperidine-2-carboxylic Acid]	0.21 to 10	–
Cc1c(COc2cc(OCc3cncc(C#N)c3)c(CNC(C)(CO)CO)cc2Cl)cccc1-c1cccc(OCCCNC(C)(CO)CO)c1Cl [Example 2102, 5-((4-chloro-5-((2′-chloro-3′-(3-((1,3-dihydroxy-2-methylpropan-2-yl)amino)propoxy)-2-methyl-[1,1′-biphenyl]-3-yl)methoxy)-2-(((1,3-dihydroxy-2-methylpropan-2-yl)amino)methyl)phenoxy)methyl)nicotinonitrile]	0.21 to 10	–
Cc1c(COc2cc(OCc3cncc(C#N)c3)c(CN3CCCC[C@H]3C(=O)O)cc2Cl)cccc1-c1cccc(OCC(=O)N2CC[C@H](O)C2)c1 [Example 1005, (S)-1-(5-chloro-2-((5-cyanopyridin-3-yl)methoxy)-4-((3′-(2-((S)-3-hydroxypyrrolidin-1-yl)-2-oxoethoxy)-2-methyl-[1,1′-biphenyl]-3-yl)methoxy)benzyl)piperidine-2-carboxylic Acid]	–	37
Cc1c(COc2cc(OCc3cncc(C#N)c3)c(CN3CCCC[C@H]3C(=O)O)cc2Cl)cccc1-c1cccc(OCCCN(C)Cc2ccccn2)c1C [Example 2228, (2S)-1-(5-chloro-2-((5-cyanopyridin-3-yl)methoxy)-4-((2,2′-dimethyl-3′-(3-(methyl(pyridin-2-ylmethyl)amino)propoxy)biphenyl-3-yl)methoxy)benzyl)piperidine-2-carboxylic Acid]	10 to 100	–
Cc1c(COc2cc(OCc3cncc(C#N)c3)c(CNC[C@H](O)CO)cc2Cl)cccc1-c1cccc(OCCCNC[C@H](O)CO)c1C [Example 2265, 5-((4-chloro-2-(((S)-2,3-dihydroxypropylamino)methyl)-5-((3′-(3-((S)-2,3-dihydroxypropylamino)propoxy)-2,2′-dimethylbiphenyl-3-yl)methoxy)phenoxy)methyl)nicotinonitrile]	0.21 to 10	–
Cc1ccccc1-c1cccc(COc2cc(OCc3cncc(C#N)c3)c(CN[C@@H](CO)C(=O)O)cc2Cl)c1C [Example 3021, (S)-2-((5-chloro-2-((5-cyanopyridin-3-yl)methoxy)-4-((2,2′-dimethyl-[1,1′-biphenyl]-3-yl)methoxy)benzyl)amino)-3-hydroxypropanoic Acid]	0.21 to 10	–
Cc1c(COc2cc(OCc3cncc(C#N)c3)c(CNC(C)(CO)CO)cc2Cl)cccc1-c1cccc(C(=O)N(C)C)c1C [Example 4035, 3′-((2-chloro-5-((5-cyanopyridin-3-yl)methoxy)-4-(((1,3-dihydroxy-2-methylpropan-2-yl)amino)methyl)phenoxy)methyl)-N,N,2,2′-tetramethyl-[1,1′-biphenyl]-3-carboxamide]	10 to 100	–

The remaining lines, values ahead:

IC50 (value given as range class) [nM]	IC50 (numeric IC50) [nM]	Structure (SMILES)
0.21 to 10	–	Cc1c(COc2cc(OCc3cc(Cl)cc(Cl)c3)c(CNC(CO)CO)cc2Cl)cccc1-c1cccc(OCCCN2CC[C@@H](O)C2)c1C [Example 4501, (R)-2-((5-chloro-2-((3,5-dichlorobenzyl)oxy)-4-((3′-(3-(3-hydroxypyrrolidin-1-yl)propoxy)-2,2′-dimethyl-[1,1′-biphenyl]-3-yl)methoxy)benzyl)amino)propane-1,3-diol]
0.21 to 10	–	Cc1c(COc2cc(OCc3cncc(C#N)c3)c(CN3CCCC[C@H]3C(=O)O)cc2Cl)cccc1-c1cccc(OCCCN2CCC[C@H](C(=O)O)C2)c1C [Example 2204, (2S)-1-(4-((3′-(3-((S)-3-carboxypiperidin-1-yl)propoxy)-2,2′-dimethylbiphenyl-3-yl)methoxy)-5-chloro-2-((5-cyanopyridin-3-yl)methoxy)benzyl)piperidine-2-carboxylic Acid]
0.21 to 10	–	CC(=O)NC1CCN(CCCOc2cccc(-c3cccc(COc4cc(OCc5cncc(C#N)c5)c(CNC(CO)CO)cc4Cl)c3C)c2Cl)CC1 [Example 2062, N-(1-(3-((2-chloro-3′-((2-chloro-5-((5-cyanopyridin-3-yl)methoxy)-4-(((1,3-dihydroxypropan-2-yl)amino)methyl)phenoxy)methyl)-2′-methyl-[1,1′-biphenyl]-3-yl)oxy)propyl)piperidin-4-yl)acetamide]
0.21 to 10	–	COC(=O)[C@@H]1C[C@@H](O)CN1CCCOc1cccc(-c2cccc(COc3cc(OCc4cncc(S(C)(=O)=O)c4)c(CN4CCCC[C@H]4C(=O)O)cc3Cl)c2C)c1Cl [Example 1069, (S)-1-(5-chloro-4-((2′-chloro-3′-(3-((2S,4R)-4-hydroxy-2-(methoxycarbonyl)pyrrolidin-1-yl)propoxy)-2-methyl-[1,1′-biphenyl]-3-yl)methoxy)-2-((5-(methylsulfonyl)pyridin-3-yl)methoxy)benzyl)piperidine-2-carboxylic Acid]
0.21 to 10	–	Cc1c(OCCCN2CC[C@@H](O)C2)cccc1-c1cccc(COc2cc(OCC(=O)N(C)C)c(CNC(CO)CO)cc2Cl)c1Cl [Example 2317, (R)-2-(4-chloro-5-((2-chloro-3′-(3-(3-hydroxypyrrolidin-1-yl)propoxy)-2′-methyl-[1,1′-biphenyl]-3-yl)methoxy)-2-(((1,3-dihydroxypropan-2-yl)amino)methyl)phenoxy)-N,N-dimethylacetamide]
0.21 to 10	–	Cc1c(COc2cc(OCc3cncc(C#N)c3)c(CNC(CO)CO)cc2Cl)cccc1-c1cccc(OC[C@H]2CCNC2)c1C [Example 2323, (S)-5-((4-chloro-2-(((1,3-dihydroxypropan-2-yl)amino)methyl)-5-((2,2′-dimethyl-3′-(pyrrolidin-3-ylmethoxy)-[1,1′-biphenyl]-3-yl)methoxy)phenoxy)methyl)nicotinonitrile]

— US10745382B2 (BRISTOL-MYERS SQUIBB COMPANY, priority 2015, dated 2020)
